# According to PMC4422656, “Structural Basis Underlying the Binding Preference of Human Galectins-1, -3 and -7 for Galβ1-3/4GlcNAc” (PLoS ONE, 2015):
# Where “and” joins values, the source holds several entries; their conditions need not be identical. Equal entries are not always repeated.
# Tests used:
# hGal3-E165A = target: T1, hGal3-E165A (Homo sapiens, UniProt P17931, E165A); assay: Biolayer interferometry, LN1/LN2 binding affinity; conditions: for Reduction of binding affinity of hGal3-E165A: hGal3-E165A versus wild-type hGal3, from Table 1 Kd BI; for Kd: Biolayer Interferometry at 300 K, steady-state, read-out: Dissociation constant Kd (Kd BI)
# T1 construct: the full-length hGal1 (residues 1–135), 3 (residues 1–250); 6xHis (N); made in house; host or cells: Escherichia coli BL21 (DE3)
# Text: (§1) Using a standard PCR-based cloning strategy, the coding region of the full-length hGal1 (residues 1–135), 3 (residues 1–250), 7 (residues 1–136) and CRD domain of hGal3 (residues 113–250) were generated and inserted into modified pET-15b (hGal1, hGal3 and hGal3-CRD) or pET-28a (hGal7) vector (Novagen) with in-frame N- and C-terminal 6xHis-tag, respectively. QuikChange mutagenesis method (Agilent Technologies) was applied to replace the corresponding codons of residues Glu165 and Arg186 in full-length hGal3 with Ala codon to allow the expression of mutant proteins hGal3-E165A and hGal3-R186A. All the wild type and mutated proteins were produced in Escherichia coli BL21 (DE3), with 0.5 mM IPTG induction for 16 h at 20 °C. Recombinant proteins were purified by Ni^2+-affinity and size-exclusion chromatography to homogeneity. Purified proteins were then stored in gel-filtration buffer (25 mM Tris-HCl pH8.0, 300 mM NaCl and 5 mM β-mercaptoethanol) and concentrated to ~ 4, 20 and 9 mg/ml as determined by the method of Bradford for both Biolayer interferometry experiments and crystallization trials, respectively.
# (§2) Specifically, biotinylated galectins were prepared according to the standard protocol (provided by FortéBio), and adjusted to final concentration of 1 μM in assay buffer condition (50 mM Tris-HCl pH 7.5, 300 mM NaCl and 5 mM β-mercaptoethanol). Biotinylated galectins were then immobilized on Super Streptavidin Biosensors (FortéBio, Inc.), while free streptavidin sites on biosensor were then blocked by incubation with biocytin (10 mg/ml) to avoid non-specific interactions. […] Measurements were followed by 120 sec baseline step, 60 sec association step and 200 sec dissociation step. Baseline and dissociation steps were carried out in assay buffer only. All the data were processed and calculated using Fortebio software and the steady-state K d values were derived from equilibrium responses (S1 Fig) and summarized in Table 1. Two additional parallel Super Streptavidin biosensors were coated with biotinylated galectin and biocytin, separately, and only incubated with assay buffer as double reference controls.
# hGal3-R186A = target: T2, hGal3-R186A (Homo sapiens, UniProt P17931, R186A); assay: Biolayer interferometry, LN1/LN2 binding affinity; conditions: hGal3-R186A mutant
# T2 construct: the full-length hGal1 (residues 1–135), 3 (residues 1–250); 6xHis (N); made in house; host or cells: Escherichia coli BL21 (DE3)
# Text: as §1, §2
# human galectin-1 (hGal1) [1] = target: T3, human galectin-1 (hGal1) (Homo sapiens, UniProt P09382); assay: Biolayer interferometry, LN1/LN2 binding affinity; conditions: for Kd: Biolayer Interferometry at 300 K, steady-state, read-out: Dissociation constant Kd (Kd BI)
# T3 construct: the full-length hGal1 (residues 1–135); 6xHis (N); made in house; host or cells: Escherichia coli BL21 (DE3)
# Text: as §1, §2
# [2] = target: T4, human galectin-3 (hGal3, full-length) (Homo sapiens, UniProt P17931); assay: Biolayer interferometry, LN1/LN2 binding affinity; conditions: for Kd: Biolayer Interferometry at 300 K, steady-state, read-out: Dissociation constant Kd (Kd BI)
# T4 construct: the full-length hGal1 (residues 1–135), 3 (residues 1–250); 6xHis (N); made in house; host or cells: Escherichia coli BL21 (DE3)
# Text: as §1, §2
# human galectin-7 (hGal7) [3] = target: T5, human galectin-7 (hGal7) (Homo sapiens, UniProt P47929); assay: Biolayer interferometry, LN1/LN2 binding affinity; conditions: for Kd: Biolayer Interferometry at 300 K, steady-state, read-out: Dissociation constant Kd (Kd BI)
# T5 construct: 7 (residues 1–136); 6xHis (C); made in house; host or cells: Escherichia coli BL21 (DE3)
# Text: as §1, §2
# human galectin-1 (hGal1) [4] = target: T3, human galectin-1 (hGal1); assay: Fluorescence polarization (FP)-based competition binding assay; conditions: for Kd: fluorescence anisotropy at 277 K, competition with LN2-FITC probe, read-out: Dissociation constant Kd (Kd FP)
# Procedure: (§3) The measurement of FP-based assay is based on the rotation speed of a fluorophore-containing compound bound to the protein counterpart (e.g. galectins in this study). The fluorophore rotates at a slower rate than when it is unbound, and the resulting fluorescence polarization is higher. In this study we carried out all measurements according to reported procedures. […] All the measurements were conducted in Tris buffer (12.5 mM, pH 7.4) with 200 mM NaCl and 5 mM β-mercaptoethanol at 4 °C. Data plotting, nonlinear regression analysis, and curve construction was done by Prism 5.0 software (GraphPad, San Diego, CA).
# (§4) The measured anisotropy value with competitor (Acompetitor) is used to calculate the amount of galectin-bound probe [PG] according to equation:
# (§5) [PG]=[(Acompetitor−A0)∕(Amax−A0)]×[P]total.−
# human galectin-3 (hGal3) = target: T6, human galectin-3 (hGal3) (Homo sapiens, UniProt P17931); assay: as above; conditions: for Kd: fluorescence anisotropy at 277 K, competition with LN2-FITC probe, read-out: Dissociation constant Kd (Kd FP)
# T6 construct: the full-length hGal1 (residues 1–135), 3 (residues 1–250); 6xHis (N); made in house; host or cells: Escherichia coli BL21 (DE3)
# Procedure: as §3, §4, §5
# human galectin-7 (hGal7) [5] = target: T5, human galectin-7 (hGal7); assay: as above; conditions: for Kd: fluorescence anisotropy at 277 K, competition with LN2-FITC probe, read-out: Dissociation constant Kd (Kd FP)
# Procedure: as §3, §4, §5
# hGal1 [6] = system: hGal1; design: method as in PMID 23124203; conditions: in the presence of λ5-UR peptide of pre-BCR; cited from earlier work
# hGal1 [7] = system: hGal1; design: method as in PMID 12223272; conditions: LN1 versus LN2; cited from earlier work
# CRD domain of hGal3 = system: CRD domain of hGal3; design: method as in PMID 12223272; conditions: CRD domain used instead of full-length hGal3; LN1 versus LN2; cited from earlier work
# hGal7 = system: hGal7; design: method as in PMID 12223272; conditions: cited from earlier work
# rat galectin-2 = system: rat galectin-2; design: method as in PMID 12223272; conditions: cited from earlier work
# hGal3 = system: hGal3; design: method as in PMID 21949831; conditions: cited from earlier work
# hGal1 [8] = system: hGal1; design: method as in PMID 21949831; conditions: cited from earlier work
# [9] = based on Kd BI values, LN1 versus LN2
# [10] = based on Kd FP values, LN1 versus LN2
# T5 sequence (P47929 whole entry, the tested form may be a part): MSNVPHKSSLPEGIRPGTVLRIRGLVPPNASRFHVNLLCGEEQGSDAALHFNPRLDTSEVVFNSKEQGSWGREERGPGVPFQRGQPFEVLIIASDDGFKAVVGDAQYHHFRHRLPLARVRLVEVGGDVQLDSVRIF
# T3 sequence (P09382 whole entry, the tested form may be a part): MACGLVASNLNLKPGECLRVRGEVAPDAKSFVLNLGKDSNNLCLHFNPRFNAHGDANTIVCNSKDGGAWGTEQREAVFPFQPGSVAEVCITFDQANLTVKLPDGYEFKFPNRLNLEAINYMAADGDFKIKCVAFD
# T1 sequence (P17931 whole entry E165A, the tested form may be a part): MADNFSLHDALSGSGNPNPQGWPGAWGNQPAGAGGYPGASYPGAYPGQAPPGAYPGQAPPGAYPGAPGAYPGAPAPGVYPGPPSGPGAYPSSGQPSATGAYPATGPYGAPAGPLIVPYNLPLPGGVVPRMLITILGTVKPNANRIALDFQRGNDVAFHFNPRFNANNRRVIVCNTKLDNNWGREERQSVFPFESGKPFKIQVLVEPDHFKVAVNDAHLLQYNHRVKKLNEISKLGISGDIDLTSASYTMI
# T4 sequence (P17931 whole entry, the tested form may be a part): as the sequence (P17931 whole entry E165A, the tested form may be a part) above, with A165E counted along it
# T6 sequence (P17931 whole entry, the tested form may be a part): as the sequence (P17931 whole entry E165A, the tested form may be a part) above, with A165E counted along it
# T2 sequence (P17931 whole entry R186A, the tested form may be a part): as the sequence (P17931 whole entry E165A, the tested form may be a part) above, with A165E, R186A counted along it
Reduction of binding affinity of hGal3-E165A (hGal3-E165A),Kd (hGal3-E165A; hGal3-E165A),Binding ability (hGal3-R186A),Kd (human galectin-1 (hGal1) [1]),Kd [2],Kd (human galectin-7 (hGal7) [3]),Kd (human galectin-1 (hGal1) [4]),Kd (human galectin-3 (hGal3)),Kd (human galectin-7 (hGal7) [5]),Compound,also measured
8.5 fold,280 µM,lose its binding ability,150 µM,~33 µM and 33 µM,~410 µM and 410 µM,3.59 µM,0.33 µM,19.7 µM,"CC(=O)N[C@@H]1[C@@H](O)[C@H](O[C@@H]2O[C@H](CO)[C@H](O)[C@H](O)[C@H]2O)[C@@H](CO)O[C@H]1O [LN2, Galβ1-4GlcNAc]",
,,,,,,,,,"CC(=O)N[C@H]1[C@H](O[C@H]2[C@@H](O)[C@@H](CO)O[C@@H](O[C@H]3[C@H](O)[C@@H](O)C(O)O[C@@H]3CO)[C@@H]2O)O[C@H](CO)[C@@H](O[C@@H]2O[C@H](CO)[C@H](O)[C@H](O)[C@H]2O)[C@@H]1O (mixture of isomers) [Lacto-N-neotetraose (LNnT), Lacto-N-neotetraose]",Decrease of hGal1 binding (hGal1 [6]): 3 fold
2.5 fold,230 µM,lose its binding ability,~340 µM and 340 µM,~93 µM and 93 µM,~270 µM and 270 µM,6.74 µM,1.44 µM,6.6 µM and 6.63 µM,"CC(=O)NC1C(O)OC(CO)C(O)C1OC1OC(CO)C(O)C(O)C1O (stereo not shown) [LN1, Galβ1-3GlcNAc]","LN1/LN2 ratio (Kd LN1/Kd LN2) (hGal3-E165A; hGal3-E165A, based on Kd BI values, LN1 versus LN2): 1.22 and 1.22 ^2; LN1/LN2 ratio (Kd LN1/Kd LN2) (human galectin-1 (hGal1) [1]; [9]): 0.44; LN1/LN2 ratio (Kd LN1/Kd LN2) [2, 9]: 0.35; LN1/LN2 ratio (Kd LN1/Kd LN2) (human galectin-7 (hGal7) [3]; [9]): 1.52; LN1/LN2 ratio (Kd LN1/Kd LN2) (human galectin-1 (hGal1) [4]; [10]): 0.53; LN1/LN2 ratio (Kd LN1/Kd LN2) (human galectin-3 (hGal3); [10]): 0.23; LN1/LN2 ratio (Kd LN1/Kd LN2) (human galectin-7 (hGal7) [5]; [10]): 2.97; LN1/LN2 ratio, previous study (hGal1 [7]): 0.79; LN1/LN2 ratio, previous study (CRD domain of hGal3): 0.65 ^5; LN1/LN2 ratio, previous study (hGal7; LN1 versus LN2): 2.7; LN1/LN2 binding preference (hGal7): prominent LN1-preferred binding activity; LN1/LN2 binding preference (rat galectin-2): prominent LN1-preferred binding activity"
,,,,,,,,,"CC(=O)N[C@H]1C(O)O[C@H](CO)[C@H](O)[C@@H]1O[C@@H]1O[C@H](CO)[C@H](O)[C@H](O)[C@H]1O (stereo partly shown) [TF antigen, Galβ1-3GalNAc]",Binding with TF antigen (hGal3): binds; Binding with TF antigen (hGal1 [8]): not
,,,,,,,,,CC(=O)N[C@H]1[C@H]([C@H](O)[C@H](O)CO)O[C@@](O[C@H]2[C@@H](O)[C@@H](CO)O[C@@H](O[C@H]3[C@H](O)[C@@H](NC(C)=O)C(O)O[C@@H]3CO)[C@@H]2O)(C(=O)O)C[C@@H]1O (stereo partly drawn) [α3-SiaLacNAc],Increase of hGal1 binding (hGal1 [6]): 10 fold
